From patent publication US11696914B1 (priority 2019, dated 2023)

Molecular target: Zaire ebolavirus disulfide-linked glycoprotein heterodimer (GP1-GP2) (Zaire ebolavirus, UniProt Q05320)
Assay: biochemical
Assay type: binding

Sequence of Zaire ebolavirus disulfide-linked glycoprotein heterodimer (GP1-GP2) (Q05320 33-501 limits assumed): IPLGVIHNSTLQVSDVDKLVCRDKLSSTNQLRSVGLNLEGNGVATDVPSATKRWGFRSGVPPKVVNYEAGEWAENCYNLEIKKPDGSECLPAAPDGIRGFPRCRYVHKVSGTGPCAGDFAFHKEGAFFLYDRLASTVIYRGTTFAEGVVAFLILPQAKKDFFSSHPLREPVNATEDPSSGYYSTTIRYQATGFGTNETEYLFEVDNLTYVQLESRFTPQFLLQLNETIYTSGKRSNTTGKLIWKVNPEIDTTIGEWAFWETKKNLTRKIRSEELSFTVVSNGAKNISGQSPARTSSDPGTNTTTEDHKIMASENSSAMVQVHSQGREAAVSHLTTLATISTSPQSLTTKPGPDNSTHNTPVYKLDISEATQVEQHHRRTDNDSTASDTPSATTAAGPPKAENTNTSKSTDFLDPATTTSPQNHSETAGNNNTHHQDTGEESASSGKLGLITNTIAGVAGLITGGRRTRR
Sequence of Zaire ebolavirus disulfide-linked glycoprotein heterodimer (GP1-GP2) (Q05320 502-676 limits assumed): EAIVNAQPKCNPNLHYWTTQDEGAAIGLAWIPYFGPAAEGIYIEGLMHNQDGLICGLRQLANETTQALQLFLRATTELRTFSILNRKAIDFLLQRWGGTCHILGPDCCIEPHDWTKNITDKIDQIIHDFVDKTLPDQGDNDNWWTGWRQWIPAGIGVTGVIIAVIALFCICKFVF

Row | SMILES | binds to EBOV glycoprotein | Kd [µM]
1 | C[C@H]1[C@H](OC(=O)CCC(=O)O)O[C@@H]2O[C@@]3(C)CC[C@H]4[C@H](C)CC[C@@H]1[C@@]24OO3 [Artesunate] | did not | 
2 | NC(=O)c1nc(F)c[nH]c1=O [Favipiravir] | did not | 
3 | COc1ccc2nc3cc(Cl)ccc3c(Nc3cc(CN4CCCC4)c(O)c(CN4CCCC4)c3)c2n1 [Pyronaridine, 4-[(7-Chloro-2-methoxybenzo[b][1,5]naph-thyridin-10-yl)amino]-2,6-bis(1-pyrrolidinylmethyl)phenol phosphate (1:4)] |  | 7.34
4 | CCN(CC)CCCC(C)Nc1c2ccc(Cl)cc2nc2ccc(OC)cc12 (centres unmarked) [Quinacrine] |  | 7.55
5 | CCN(CC)CCOc1ccc2c(c1)C(=O)c1cc(OCCN(CC)CC)ccc1-2 [Tilorone] |  | 0.73
